The text below walks through data of ChEMBL document CHEMBL3988442, “University of Dundee, Small-Polar-MMV Screening Library” (2021).

The test system of this test is Schistosoma mansoni. The test is described as follows: High throughput screening of compounds against Schistosoma mansoni motility. It counts as functional. The arrangement: dose or concentration left out as unconfirmed.
Turning to `Cc1cn(-c2ccccc2)nc1NS(=O)(=O)c1cccc(C(=O)O)c1`, the “Percent Effect” value is given as -30.44%.

Take `CC[C@@]1(O)CCN(C(=O)c2ccsc2)C[C@H]1O`: the “Percent Effect” value was -27.08%.

As for `O=C(CCc1ccc(O)cc1)N1CCC(Cc2ccc(CO)cc2)C1` (stereo not drawn), the “Percent Effect” value turned out to be 16.91%.

With `O=C(Nc1nccs1)N1CCCC(N2CCNC2=O)C1` (stereo not drawn), the “Percent Effect” value was -22.52%.

Consider `Cn1cnnc1S(=O)(=O)C1CCN(S(=O)(=O)C2CC2)CC1`, for which the “Percent Effect” value is recorded as -25.74%.

With `Cn1cnc(S(=O)(=O)N2CCN(Cc3ccco3)CC2)c1Cl`, the “Percent Effect” value is -70.1%.

With `O=C(CCCc1ccc(F)cc1)N1C[C@@H](CN2CCOCC2)[C@@H](CO)C1`, the “Percent Effect” value is -22.43%.

As for `Cn1cnnc1S(=O)(=O)C1CCN(S(=O)(=O)c2ccc(F)c(Cl)c2)CC1`, the “Percent Effect” value is on record as -43.49%.

For the compound `CN(C)C(=O)c1cccc(NC(=O)N(CCO)Cc2ccsc2)c1`, the “Percent Effect” value is given as -21.08%.

Take `CCc1nnc2n1CC(CNCc1ccncc1)CC2` (stereo not drawn): the “Percent Effect” value is on record as -67.25%.

In the case of `CCc1ccccc1CN1CC[C@@H](NC(=O)c2cccnc2)[C@H](O)C1`, the “Percent Effect” value is on record as -49.14%.

In the case of `Cn1c(CN2CCN(CC3CC3)CC2)nnc1C1CCC1`, the “Percent Effect” value is on record as -23.98%.

On to `CC(C)(CO)NC(=O)C1CCC(=O)N(Cc2ccc(Cl)cc2)C1` (stereo not drawn), for which the “Percent Effect” value was -0.822%.

As for `Cc1ncsc1C(=O)N1CCCC(c2noc(C(C)C)n2)C1` (stereo not drawn), the “Percent Effect” value is -12.34%.

`CNC(=O)CCNC(=O)c1cccc(Cn2nc(C)cc2C)c1`: the “Percent Effect” value was -2.451%.

For the compound `Cc1ccc(C(=O)O)cc1S(=O)(=O)Nc1nn(-c2ccccc2)cc1C`, the “Percent Effect” value is -27.39%.

With `CCCN1CCC(NC(=O)c2ccc(F)cc2I)CC1`, the “Percent Effect” value is given as 16.82%.

With `COc1ccc(NC(C)C(=O)N2CCN(c3ncccn3)CC2)cn1` (stereo not drawn), the “Percent Effect” value is reported as -56.07%.

Consider `Cc1ccccc1N1CCCN(C(=O)CCCS(N)(=O)=O)CC1`, for which the “Percent Effect” value is -57.21%.

For the compound `CCn1c(CN(C)C)nnc1C1CCN(c2ccnc(C)c2)CC1`, the “Percent Effect” value came out at 3.943%.

Take `CSCCCN1CCn2nc(CNC(C)=O)cc2C1`: the “Percent Effect” value is on record as -25.09%.

`COc1ccccc1NC(=O)NCC(O)(c1ccccc1)C1CC1` (stereo not drawn): the “Percent Effect” value came to 57.61%.

Turning to `CN(CCC(F)(F)F)C(=O)C1CCCN1C(=O)OC(C)(C)C` (stereo not drawn), the “Percent Effect” value is on record as -26.39%.

With `CC(O)CN1CCC(CNCc2ccc(S(C)(=O)=O)cc2)CC1` (stereo not drawn), the “Percent Effect” value is -16.24%.

Take `CCOCCNc1nc(C2CCCC2)nc2c1cnn2C`: the “Percent Effect” value is on record as -80.64%.

With `CCCc1n[nH]c(C2CN(C(=O)CCCn3cccn3)CCO2)n1` (stereo not drawn), the “Percent Effect” value is listed as -21.33%.

As to `CN(C)S(=O)(=O)N1C[C@@H]2CC[C@H](C1)N(Cc1ccc3nsnc3c1)C2`, the “Percent Effect” value is reported as -23.4%.

On to `CCn1nc(CC(C)C)cc1C(=O)NCCn1cccc1`, for which the “Percent Effect” value is -58.97%.

For the compound `Cn1cc(CCC(=O)N2C[C@H]3CC[C@@H]2CN(Cc2ccccc2)C3)cn1`, the “Percent Effect” value is reported as -38.92%.

As to `CC(C#N)CSc1ccccc1NCC(=O)Nc1ccc(F)cc1` (stereo not drawn), the “Percent Effect” value stood at 55.09%.

`O=S(=O)(Cc1ccccc1)NCc1ccco1`: the “Percent Effect” value is given as -25.54%.

For `CCc1nc2n(n1)CC(Nc1cc(C)nc3ncnn13)CC2` (stereo not drawn), the “Percent Effect” value was -43.49%.

As for `Cc1nn(C)c(N2CCOCC2)c1CNC(C)c1cccnc1` (stereo not drawn), the “Percent Effect” value is given as -13.95%.

With `Cc1nc2ccccn2c1CN(Cc1cccnc1)CC1CCCO1` (stereo not drawn), the “Percent Effect” value is -47.66%.

Consider `Cc1ccc(S(=O)(=O)NC(=O)c2cccc3c2OCCO3)c(C)c1`, for which the “Percent Effect” value is given as -13.74%.

As to `CN(C)CCN(Cc1cccc(C(F)(F)F)c1)C(=O)c1cc[nH]n1`, the “Percent Effect” value was determined as 19.83%.

In the case of `CCc1nnc2n1CCN(Cc1csc(-c3ccsc3)n1)C2`, the “Percent Effect” value was -55.89%.

Turning to `COCCN1C(=O)CC(N2CCN(c3ccc(OC)cc3)CC2)C1=O` (stereo not drawn), the “Percent Effect” value is listed as -42.76%.

As for `CC(C)S(=O)(=O)NCC1CCCN(C(=O)c2ccc3c(c2)OCCO3)C1` (stereo not drawn), the “Percent Effect” value was -47.11%.

Take `CCCc1n[nH]c(C2CN(CCn3cccn3)CCO2)n1` (stereo not drawn): the “Percent Effect” value came out at 4.257%.

Consider `Cc1cc(NC(=O)CCc2ccsc2)n(C)n1`, for which the “Percent Effect” value is reported as 18.83%.

Take `COCCn1ccnc1C1CCCN(C(=O)CSCC2CC2)C1` (stereo not drawn): the “Percent Effect” value is -4.392%.

Take `CS(=O)(=O)CCSc1cccc(C#N)c1`: the “Percent Effect” value is -35.13%.

Regarding `OCC1CCCN1c1cc(NCCNc2ccccn2)ncn1` (stereo not drawn), the “Percent Effect” value is listed as -56.18%.

With `CN1CCN(Cc2nnc(C3CCN(CC4CC4)CC3)n2C)CC1`, the “Percent Effect” value is recorded as -64.34%.

With `CN(C(=O)Cn1nc(-c2ccc(F)cc2)oc1=O)C1CCS(=O)(=O)C1` (stereo not drawn), the “Percent Effect” value is on record as -46.67%.

With `CCn1c(N)nc2cc(C(=O)NCCc3sccc3C)cnc21`, the “Percent Effect” value is listed as -77.79%.

In the case of `Cc1cnc2n(c1=O)CC(C(=O)Nc1ccccc1Cl)CS2` (stereo not drawn), the “Percent Effect” value is listed as -94.31%.

Turning to `O=C1OCCN1CCOc1nc(-c2ccccc2Cl)no1`, the “Percent Effect” value is on record as -41.52%.

For the compound `Cc1csc(N2CCN(Cc3cnc(C)s3)CC2C)n1` (stereo not drawn), the “Percent Effect” value was -30.28%.

`COC(=O)c1sccc1S(=O)(=O)NCC1(O)CCOc2ccccc21` (stereo not drawn): the “Percent Effect” value was -15.01%.

In the case of `CN(C)C(=O)N1C[C@@H]2CC[C@H](C1)N(Cc1ccc3nsnc3c1)C2`, the “Percent Effect” value is given as -20.59%.

Consider `Cc1ccc(CC(=O)N2CCOC(c3nc(C(C)(C)C)n[nH]3)C2)cn1` (stereo not drawn), for which the “Percent Effect” value turned out to be 7.474%.

Regarding `Cc1ccc(N2CCN(C(=O)COc3nccc(C)n3)CC2)nn1`, the “Percent Effect” value was -46.68%.

Consider `O=C(c1ccc(=O)[nH]n1)N1CC(c2nc(Cc3ccccc3)no2)C1`, for which the “Percent Effect” value is reported as -36.12%.

`Cn1cc(-c2csc(CN3CCOCC3)n2)cn1`: the “Percent Effect” value is 14.63%.

Turning to `CC1CN(C)c2ccccc2CN1C(=O)CSc1ccncc1` (stereo not drawn), the “Percent Effect” value amounted to 7.617%.

Take `CC(C)c1nc(CN(C)C2CCN(CC(F)(F)F)C2)no1` (stereo not drawn): the “Percent Effect” value is on record as -30.86%.

For the compound `C[C@@H]1CN(C2(C(=O)N3CCCCCC3)Cc3ccccc3C2)C[C@H](C)O1`, the “Percent Effect” value is recorded as 12.64%.

For `Cn1c(Cn2ccnc2)nnc1C1CCN(Cc2cccnc2N)CC1`, the “Percent Effect” value was -10.4%.

As to `COC(=O)c1ccc2ccn(CC3CCNC3)c(=O)c2c1` (stereo not drawn), the “Percent Effect” value was -40.15%.

`Cc1nccc(N2CCC(=O)N(Cc3ccc(F)cc3)C(C(C)C)C2)n1` (stereo not drawn): the “Percent Effect” value is listed as -22.84%.

In the case of `CN(CCCc1cnn(C)c1)C(=O)C1CCOC1` (stereo not drawn), the “Percent Effect” value is given as -54.96%.

Consider `CC(NC(=O)C1=NN(C)C(=O)CC1)c1ccc(F)cc1F` (stereo not drawn), for which the “Percent Effect” value is -36.47%.

As to `O=C1CN(Cc2nnc(-c3ccc(Br)o3)o2)CCN1`, the “Percent Effect” value is -20.64%.

Take `Cc1nc(C(C)(C)NC(=O)Nc2cccc(C#N)c2)no1`: the “Percent Effect” value is -35.79%.

On to `COCC(=O)N1Cc2cnc(Cc3ccc(OC)cc3)nc2C1`, for which the “Percent Effect” value is given as -28.71%.

Consider `Cc1nn(C)c(C)c1NC(=O)CN1CCCC1c1noc(C2CC2)n1` (stereo not drawn), for which the “Percent Effect” value is on record as -50.94%.

With `COc1cccc(NC(=O)N(CCO)Cc2ccsc2)c1`, the “Percent Effect” value is recorded as -62.57%.

For the compound `Cc1cc(C[C@@H]2COC[C@@H]2NC(=O)Cn2c(=O)oc3ccccc32)on1`, the “Percent Effect” value is on record as -26.12%.

With `COCCN1CCN(C(=O)c2cc(C(C)C)on2)[C@H]2CS(=O)(=O)C[C@H]21`, the “Percent Effect” value amounted to 3.129%.

For `COC(=O)c1sccc1S(=O)(=O)N1CCC(Oc2cccnn2)CC1`, the “Percent Effect” value is listed as -55.3%.

Regarding `Cc1ncc(CNC(=O)Nc2cc(C(F)(F)F)c[nH]c2=O)s1`, the “Percent Effect” value was -39.38%.

Consider `O=C(c1cc(Cl)c2c(c1)OCO2)N1CCN(c2nccs2)CC1`, for which the “Percent Effect” value is listed as -51.67%.

As for `CCN1CC(C(=O)NCc2ccnc(-n3ccnc3C)c2)CC1=O` (stereo not drawn), the “Percent Effect” value is -29.1%.

As for `c1cc(C2CCCN2Cc2nnnn2C2CC2)cs1` (stereo not drawn), the “Percent Effect” value is given as -76.39%.

Consider `Cc1cc(-c2nnc(SCC(=O)O)n2C(C)c2ccccc2)nn1C` (stereo not drawn), for which the “Percent Effect” value is reported as -38.23%.

As for `CCc1nnc2n1CCN(Cc1csc(-c3cnn(C)c3)n1)C2`, the “Percent Effect” value is -30.99%.

As to `CCc1ncncc1C(=O)NCCN1CCC(C)CC1`, the “Percent Effect” value was -31.56%.

Regarding `CCOc1ncccc1NC(=O)c1sccc1C`, the “Percent Effect” value is given as -42.63%.

Regarding `Cc1c[nH]c(CN(C)c2nc(C3CCCC3)nc3c2cnn3C)n1`, the “Percent Effect” value is recorded as -22.17%.

Take `CC(C)(C)C(=O)NCCC(=O)NC(C)(C)c1ccc2c(c1)OCCO2`: the “Percent Effect” value was -18.95%.

Take `Cc1ccc(C(=O)NC(C)CN2CCCC2=O)c(=O)[nH]1` (stereo not drawn): the “Percent Effect” value is -45.23%.

Consider `CCn1nc2c(cc1=O)CN(Cc1nc(N)c3ccccc3n1)CC2`, for which the “Percent Effect” value is given as -40.99%.

Regarding `CC(C)(C(=O)NCC(N)=O)c1ccccc1F`, the “Percent Effect” value is reported as 10.05%.

For the compound `CC1CCN(CCNC(=O)c2cncnc2C(C)C)CC1`, the “Percent Effect” value is recorded as -17.46%.

As for `O=C1CC(c2cccs2)c2snc(C(=O)O)c2N1` (stereo not drawn), the “Percent Effect” value is recorded as 18.04%.

On to `Cc1csc(N2CCN(CCc3ccccn3)CC2C)n1` (stereo not drawn), for which the “Percent Effect” value is given as -16.94%.

Consider `Cc1cccnc1CN1CCC(c2nnc(Cn3cccn3)n2C)CC1`, for which the “Percent Effect” value was -11.55%.

As for `O=C(c1cccc(S(=O)(=O)NCCCc2ncc[nH]2)c1)N1CCOCC1`, the “Percent Effect” value was -82.46%.

Regarding `COc1ccc(NC(C)C(=O)NCCc2cccs2)cc1F` (stereo not drawn), the “Percent Effect” value is given as -15.23%.

Consider `Cc1noc(C)c1CN1C(=O)[C@H]2CC[C@@H]1CN(Cc1cccnc1N)C2`, for which the “Percent Effect” value is -25.95%.

As for `O=C(NCCn1ccc(-c2ccncc2)n1)c1ccncc1`, the “Percent Effect” value is on record as -35.45%.

As for `Cc1cc(CC(=O)N2CCCC2c2nc(C(C)C)no2)on1` (stereo not drawn), the “Percent Effect” value is recorded as -26.98%.

Consider `O=C1CCSCC(C(=O)N2CCOCC2)N1` (stereo not drawn), for which the “Percent Effect” value is on record as -55.74%.

Regarding `Cc1ccsc1[C@@H]1CCN(C(=O)CCC(=O)N2CCCCCC2)C[C@H]1O`, the “Percent Effect” value is listed as -14.8%.

Regarding `Cc1cc(C[C@@H]2COC[C@@H]2NC(=O)CN2CCCN(C)CC2)on1`, the “Percent Effect” value is listed as -19.51%.

For the compound `COCCCC1(CO)CCCN(CCS(C)(=O)=O)C1` (stereo not drawn), the “Percent Effect” value is -38.37%.
